Results taken from ChEMBL document CHEMBL3396960, “Synthesis and pharmacological characterization of 2-aminobenzaldehyde oxime analogs as dual inhibitors of neutrophil elastase and proteinase 3” (Bioorg Med Chem, 2015).
Calls of active or inactive are those of the source. No cut-off for these calls is given here.

Assays:
[1] = test system: Mus musculus; test: Toxicity in C57BL/6 mouse assessed as effect on pulmonary alveoli at 100 mg/kg, ip by hematoxylin and eosin staining method; assay type: organism-based; parameters: dose 100 mg/kg, route intraperitoneal; conditions: in vivo
[2] = molecular target: T1, Cathepsin G (Homo sapiens, UniProt P08311); test: Inhibition of human cathepsin G using N-succinyl-Ala-Ala-Pro-Phe-p-nitroanilide as substrate measured for 180 mins by spectrophotometry
T1 sequence (P08311 whole entry): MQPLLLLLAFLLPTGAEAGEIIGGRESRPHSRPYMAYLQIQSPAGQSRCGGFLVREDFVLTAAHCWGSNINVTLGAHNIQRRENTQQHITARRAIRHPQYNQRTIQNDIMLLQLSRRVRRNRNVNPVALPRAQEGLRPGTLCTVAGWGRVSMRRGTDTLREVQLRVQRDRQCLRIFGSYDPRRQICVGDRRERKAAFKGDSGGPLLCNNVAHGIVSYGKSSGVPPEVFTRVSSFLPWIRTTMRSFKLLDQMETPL

[3] = Inhibition of bovine pancreatic trypsin using Nalpha-benzoyl-L-arginine-7-amido-4-methylcoumarin; parameters: species or system Bos taurus
[4] = Inhibition of bovine pancreas chymotrypsin using N-succinyl-Ala-Ala-Pro-Phe-7-amido-4-methylcoumarin by spectrophotometry; parameters: species or system Bos taurus
[5] = molecular target: Prothrombin (Bos taurus, UniProt P00735); test: Inhibition of bovine plasma thrombin using Benzoyl-Phe-Val-Arg-7-amido-4-methylcoumarin hydrochloride by spectrophotometry
[6] = molecular target: T2, Neutrophil elastase (Mus musculus, UniProt Q3UP87); test: Inhibition of recombinant mouse neutrophil elastase using methoxysuccinyl-Ala-Ala-Pro-Val-pnitroanilide as substrate preincubated for 15 mins before substrate addition measured after 90 mins by spectrophotometry
T2 sequence (Q3UP87 whole entry): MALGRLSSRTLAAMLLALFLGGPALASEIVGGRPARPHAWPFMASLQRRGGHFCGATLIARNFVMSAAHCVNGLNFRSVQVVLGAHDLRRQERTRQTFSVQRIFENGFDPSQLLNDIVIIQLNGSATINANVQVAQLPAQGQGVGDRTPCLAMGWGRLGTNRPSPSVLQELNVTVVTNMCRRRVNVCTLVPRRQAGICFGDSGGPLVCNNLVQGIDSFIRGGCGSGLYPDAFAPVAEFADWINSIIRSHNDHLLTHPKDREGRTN

[7] = molecular target: Pancreatic elastase (Sus scrofa, UniProt P08419+P00772); test: Inhibition of porcine pancreatic elastase using methoxysuccinyl-Ala-Ala-Pro-Val-p-nitroanilide as substrate preincubated for 15 mins before substrate addition measured after 60 mins by spectrophotometry; assay type: protein assay
[8] = test system: Mus musculus; test: Antiinflammatory activity in C57BL/6 mouse assessed as inhibition of human neutrophil elastase-induced edema compound treated ip 1 hr prior challenge measured up to 240 mins post dose; assay type: functional, organism-based
[9] = test system: Mus musculus; test: Antiinflammatory activity in C57BL/6 mouse assessed as inhibition of human neutrophil elastase-induced edema compound treated 1 hr prior challenge at 50 to 100 mg/kg, ip; assay type: functional, organism-based; conditions: TDE = time-dependent effect
[10] = test system: Mus musculus; test: Antiinflammatory activity in C57BL/6 mouse assessed as inhibition of LPS-induced edema compound treated 1 hr prior challenge at 100 mg/kg, ip measured up to 240 mins; assay type: functional, organism-based; parameters: dose 100 mg/kg
[11] = test system: Mus musculus; test: Toxicity in C57BL/6 mouse assessed as effect on lung structure at 100 mg/kg, ip by hematoxylin and eosin staining method; assay type: organism-based; parameters: dose 100 mg/kg, route intraperitoneal; conditions: in vivo
[12] = test system: Neutrophil; test: cells; conditions: Homo sapiens
[13] = test system: Mus musculus; test: Protection from LPS-induced acute lung injury in C57BL/6 mouse assessed as inhibition of MPO activity in lung tissue treated 1 hr prior challenge at 100 mg/kg, ip
[14] = test system: Mus musculus; test: Protection from LPS-induced acute lung injury in C57BL/6 mouse assessed as inhibition of leukocyte infiltration in lung treated 1 hr prior challenge at 100 mg/kg, ip
[15] = test system: Mus musculus; test: Protection from LPS-induced acute lung injury in C57BL/6 mouse assessed as inhibition of LPS-induced alveolar thickening treated 1 hr prior LPS challenge at 100 mg/kg, ip measured 6 hrs post LPS injection by hematoxylin and eosin staining method
[16] = test system: Mus musculus; test: Protection from LPS-induced acute lung injury in C57BL/6 mouse assessed as inhibition of LPS-induced leukocyte infiltration treated 1 hr prior LPS challenge at 100 mg/kg, ip measured 6 hrs post LPS injection by hematoxylin and eosin staining method
[17] = test system: Mus musculus; test: Protection from LPS-induced acute lung injury in C57BL/6 mouse assessed as inhibition of LPS-induced lung tissue destruction treated 1 hr prior LPS challenge at 100 mg/kg, ip measured 6 hrs post LPS injection by hematoxylin and eosin staining method
[18] = test system: Mus musculus; test: Protection from LPS-induced acute lung injury in C57BL/6 mouse assessed as inhibition of LPS-induced diffuse edematous changes treated 1 hr prior LPS challenge at 100 mg/kg, ip measured 6 hrs post LPS injection by hematoxylin and eosin staining method
[19] = molecular target: T3, Neutrophil elastase (Homo sapiens, UniProt P08246); test: Inhibition of human neutrophil elastase measured for 30 mins by spectrophotometry
T3 sequence (P08246 whole entry): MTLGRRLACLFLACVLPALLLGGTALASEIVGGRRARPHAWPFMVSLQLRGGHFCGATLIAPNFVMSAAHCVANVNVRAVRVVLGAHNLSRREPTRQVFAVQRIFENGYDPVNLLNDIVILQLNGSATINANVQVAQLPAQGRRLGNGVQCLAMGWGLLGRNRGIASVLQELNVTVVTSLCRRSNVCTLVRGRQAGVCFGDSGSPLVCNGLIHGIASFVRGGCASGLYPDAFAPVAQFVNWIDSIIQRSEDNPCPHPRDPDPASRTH

[20] = test system: Neutrophil; test: cells; conditions: Homo sapiens; remark: listed apart in the source
[21] = molecular target: T4, Myeloblastin (Homo sapiens, UniProt P24158); test: Inhibition of Pr3 (unknown origin) using t-butyloxycarbonyl-Ala-Ala-Nva-thiobenzyl ester as substrate measured for 180 mins by spectrophotometry
T4 sequence (P24158 whole entry): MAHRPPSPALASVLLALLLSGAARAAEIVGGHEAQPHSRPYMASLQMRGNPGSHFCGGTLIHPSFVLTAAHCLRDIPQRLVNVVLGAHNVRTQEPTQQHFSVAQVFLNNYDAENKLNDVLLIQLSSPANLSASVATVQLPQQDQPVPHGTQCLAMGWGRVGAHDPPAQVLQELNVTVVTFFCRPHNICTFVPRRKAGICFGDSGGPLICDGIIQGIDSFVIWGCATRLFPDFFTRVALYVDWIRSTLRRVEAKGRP

[22] = test system: Mus musculus; test: Antiinflammatory activity in C57BL/6 mouse assessed as inhibition of human neutrophil elastase-induced edema compound treated 1 hr prior challenge at 100 mg/kg, ip measured up to 240 mins; assay type: functional, organism-based; parameters: dose 100 mg/kg

| Compound | IC50 [2] | IC50 [12] | IC50 [19] | IC50 [20] | other results |
| --- | --- | --- | --- | --- | --- |
| C/C(=N/O)c1ccccc1NS(=O)(=O)c1ccc(OC(=O)C(C)(C)C)cc1 | > 10 µM | 19.6 µM |  |  | Activity [1]: Non-toxic; IC50 [3]: > 10 µM; IC50 [4]: 0.594 µM; IC50 [5]: > 10 µM; IC50 [6]: 0.191 µM; IC50 [7]: 1.88198 µM; inhibition [8]: Dose-dependent effect; inhibition [9]: tde; inhibition [10]: Active; Activity [11]: Non-toxic; inhibition [13]: Active; inhibition [14]: Active; inhibition [15]: Active; inhibition [16]: Active; inhibition [17]: Active; inhibition [18]: Active |
| CCCCC(=O)c1ccccc1NS(=O)(=O)c1ccc(OC(=O)C(C)(C)C)cc1 | > 10 µM | > 20 µM | 2.24 µM | 0.11 µM |  |
| CO/N=C(/C)c1ccccc1NS(=O)(=O)c1ccc(OC(=O)C(C)(C)C)cc1 | > 10 µM | > 20 µM |  |  |  |
| CCOC(=O)c1ccccc1NC(=O)c1ccc(OC(=O)C(C)(C)C)cc1 | > 10 µM | > 20 µM | 0.48 µM | 0.3 µM |  |
| COC(=O)c1ccccc1NS(=O)(=O)c1ccc(OC(=O)C(C)(C)C(F)(F)F)cc1 | > 10 µM |  |  | 4.94 µM |  |
| CCCC(=O)c1ccccc1NS(=O)(=O)c1ccc(OC(=O)C(C)(C)C)cc1 | > 10 µM | > 20 µM | 0.37 µM |  |  |
| CC(C)(C)C(=O)Oc1ccc(S(=O)(=O)Nc2ccccc2/C=N\O)cc1 | > 10 µM | > 20 µM |  |  |  |
| CC(C)(C)C(=O)Oc1ccc(S(=O)(=O)Nc2ccccc2C(=O)OCCO)cc1 | > 10 µM | > 20 µM | 0.29 µM | 0.05 µM |  |
| CCOC(=O)c1ccccc1NC(=O)c1ccc(OC(=O)C(C)(C)C(F)(F)F)cc1 | > 10 µM | > 20 µM | > 10 µM | 13.8 µM | IC50 [21]: > 10 µM |
| CCC/C(=N/O)c1ccccc1NS(=O)(=O)c1ccc(OC(=O)C(C)(C)C)cc1 | > 10 µM | > 20 µM |  |  |  |
| COC(=O)c1ccccc1NC(=O)c1ccc(OC(=O)C(C)(C)C)cc1 | > 10 µM | > 20 µM | 0.82 µM | 0.55 µM |  |
| CC(C)(C)[S+]([O-])Nc1ccc(S(=O)(=O)Nc2ccccc2C=O)cc1 (centres undefined) | > 10 µM | > 20 µM | > 10 µM | 9.41 µM | IC50 [21]: > 10 µM |
| CO/N=C(\C)c1ccccc1NS(=O)(=O)c1ccc(OC(=O)C(C)(C)C)cc1 | > 10 µM | > 20 µM |  |  |  |
| CC(C)(C)C(=O)Oc1ccc(S(=O)(=O)Nc2ccccc2C(=O)NCC(=O)O)cc1 | > 10 µM | > 20 µM |  |  | IC50 [21]: 0.34 µM; IC50 [3]: > 10 µM; IC50 [4]: 1.95 µM; IC50 [5]: > 10 µM; IC50 [6]: 0.145 µM; IC50 [7]: 2.18517 µM; inhibition [22]: Active; inhibition [10]: Active; inhibition [13]: Active; inhibition [14]: Active; inhibition [15]: Active; inhibition [16]: Active; inhibition [17]: Active; inhibition [18]: Active |
| CC(C)(C)C(=O)Oc1ccc(S(=O)(=O)Nc2ccccc2C(=O)NCCO)cc1 | > 10 µM | > 20 µM | 0.13 µM | 0.05 µM |  |
| CC(C)(C)C(=O)Oc1ccc(S(=O)(=O)Nc2ccccc2C=O)cc1 | > 10 µM | > 20 µM | 0.12 µM | 0.05 µM |  |
| CCCOC(=O)c1ccccc1NC(=O)c1ccc(OC(=O)C(C)(C)C)cc1 | > 10 µM | > 20 µM | 1.23 µM | 0.62 µM |  |
| COC(=O)c1ccccc1NC(=O)c1ccc(OC(=O)C(C)(C)C(F)(F)F)cc1 | > 10 µM | > 20 µM | > 10 µM | > 20 µM | IC50 [21]: > 10 µM |
| CC/C(=N/O)c1ccccc1NS(=O)(=O)c1ccc(OC(=O)C(C)(C)C)cc1 | > 10 µM | 13.4 µM |  |  |  |
| COC(=O)c1ccccc1NS(=O)(=O)c1ccc(NC(=O)C(C)(C)C)cc1 | > 10 µM | > 20 µM | > 10 µM | 13.6 µM | IC50 [21]: > 10 µM |
| CC(=O)c1ccccc1NS(=O)(=O)c1ccc(OC(=O)C(C)(C)C)cc1 | > 10 µM | > 20 µM | 0.11 µM | 0.09 µM |  |
| CCC(=O)c1ccccc1NS(=O)(=O)c1ccc(OC(=O)C(C)(C)C)cc1 | > 10 µM | > 20 µM | 0.19 µM |  |  |
| CCCOC(=O)c1ccccc1NC(=O)c1ccc(OC(=O)C(C)(C)C(F)(F)F)cc1 | > 10 µM | > 20 µM | > 10 µM | > 20 µM | IC50 [21]: > 10 µM |
